Data: patent US11773051B2, “S-enantiomers of beta-hydroxybutyrate and butanediol and methods for using same” (Buck Institute for Research on Aging, priority 2017, dated 2023)

How the values were obtained:
[1] = tested on: histone deacetylases (HDAC); experiment: in vitro HDAC assay, commercial assay kit Fluor de Lys Green from Enzo; format: biochemical; settings: comparison with literature value
Method: (§1) The activity of S-BHB and R-BHB enantiomers in inhibiting histone deacetylases was tested.
(§2) This is an in vitro HDAC assay performed using the sodium salt of S-BHB and R-BHB with a commercial assay kit, Fluor de Lys Green from Enzo.
(§3) Without being bound to a particular theory, it is believed the R-BHB might be being metabolized more rapidly than the S-BHB resulting in the diminished maximum inhibition.

[2] = tested on: T1, histone deacetylases (HDAC); experiment: as above; format: biochemical; settings: sodium salt
T1 construct: other: sodium salt; same assay as S-BHB
Method: as §1, §2, §3

Structure (SMILES)	potency for HDAC inhibition relative to potency of R-BHB in a different, previously published assay (Shimazu et al. 2013) [1] [fold]	inhibition of deacetylase activity (result in words) ([2]; FIG. 2)	IC50 ([2]; FIG. 2, read-out: HDAC activity inhibition IC50) [mM]	maximum inhibition of HDAC activity ([2]; same assay as S-BHB, partial inhibition)
C[C@H](O)CC(=O)O [S-BHB, S-beta-hydroxybutyrate]	≤ 2	dose-dependent inhibition	7.3	–
C[C@@H](O)CC(=O)O [R-BHB, reference compound]	–	–	–	about 50%
